In brackets after ≈: the same amount, converted by molar mass.
Columns and labels:
[1] = Oral bioavailability and pharmacokinetic analysis following oral administration in Nu/Nu mice; details: male, in vivo; for Prodrug AUCinf: mouse, 6 mg
Method: Compound was administered via oral gavage in male Nu/Nu mice (n=3). The vehicle composition was 10% N-Methylpyrrolidone, 40% PEG300, 50% water (pH=4-8) at 6 mg-equivalent/mL to parent drug and a dose volume of 5 mL/Kg. Formulations were prepared freshly before dosing and stored at room temperature. Plasma samples were collected at the following time intervals: 0.5, 1, 2, 4, 8, 12, 24, 48, and 72 hours post dose (based on the start of oral dosing). Serial blood samples were collected (approximately 0.025 mL) via retro-orbital vein into K2EDTA. Whole blood was processed into plasma by centrifuge (4000 rpm for 5 minutes at 4° C.) followed by addition of 0.5 M ammonium formate (pH=3, 300% of plasma volume). Plasma samples were stored in a freezer at −75±15° C. until analysis. Plasma samples were analyzed after thawing and incubating for 1 h at 37° C. followed by protein precipitation with acetonitrile containing IS mixture (vortex 30 s, centrifugation at 4° C., 400 rpm for 15 min) and the resulting supernatant was further diluted with water before injecting onto Shimadzu 8060 LC-MS/MS system for analysis. Unknown plasma samples concentration was calibrated using standard range of 0.2 to 1 000 ng/mL for parent.
Bioavailability (% F) was calculated by comparing observed plasma concentrations of parent drug after oral administration of prodrug or parent drug to observed plasma concentrations via IV (intravenous) administration of parent drug.

[2] = Solubility determination in PBS pH 7.4; format: physicochemical; details: aqueous buffer, kinetic from dmso stock; PBS pH 7.4, 2 hours, 25° C.; the listed prodrug
Method: Stock solutions (10 mM DMSO, 30 μL) of each sample were placed into 96-well plate, along with 970 μL of PBS pH 7.4 were added into each vial of the cap-less solubility sample plate. The assay was performed in duplicate. A stir stick was added to each well and sealed using a molded PTFE/Silicone plug. Then the Solubility Sample plate was transferred to an Eppendorf Thermomixer Comfort plate shaker and shaken at 1100 RPM for 2 hours at 25° C. After completion the plugs and stir sticks were removed and the samples were transferred into a filter plate and filtered using a vacuum manifold. 5 μL aliquots of filtrate were taken and diluted with 5 μL DMSO and 490 μL of a 1:1 v/v mixture of H2O and acetonitrile. 200 μL of diluent was transferred to a new 96-well plate for LC-MS/MS analysis. The solution was analyzed and quantified against a standard of known concentration in DMSO using LC coupled with Mass spectral peak for identification and quantitation.

solubility at 2 h [2] [µM]	Structure (SMILES)	Prodrug Mouse % F [1] [%]	Prodrug AUCinf [1] [µM·h]
246 (≈ 120 µg/mL)	CC/N=C/c1c(O)cc(OC)cc1OCC(=O)Nc1cc([C@H]2CC[C@@H](OC(=O)NC(C)C)C2)[nH]n1 [Compound 64c, (1R,3S)-3-(3-(2-(2-((E)-(ethylimino)methyl)-3-hydroxy-5-methoxyphenoxy)acetamido)-1H-pyrazol-5-yl)cyclopentyl isopropylcarbamate]	–	–
156 (≈ 78.2 µg/mL)	CCCNC(=O)O[C@@H]1CC[C@H](c2cc(NC(=O)COc3cc(OC)cc(O)c3/C=N/C(C)C)n[nH]2)C1 [Compound 221a, (1R,3S)-3-(3-(2-(3-hydroxy-2-((E)-(isopropylimino)methyl)-5-methoxyphenoxy)acetamido)-1H-pyrazol-5-yl)cyclopentyl propylcarbamate]	–	–
79 (≈ 39.6 µg/mL)	CCC/N=C/c1c(O)cc(OC)cc1OCC(=O)Nc1cc([C@H]2CC[C@@H](OC(=O)NC(C)C)C2)[nH]n1 [Compound 64b, (1R,3S)-3-(3-(2-(3-hydroxy-5-methoxy-2-((E)-(propylimino)methyl)phenoxy)acetamido)-1H-pyrazol-5-yl)cyclopentyl isopropylcarbamate]	–	–

Further lines, the molecule ahead of its results:

Structure (SMILES)	solubility at 2 h [2] [µM]	Prodrug Mouse % F [1] [%]	Prodrug AUCinf [1] [µM·h]
COc1cc(O)c(/C=N/C(C)C)c(OCC(=O)Nc2cc([C@H]3CC[C@@H](OC(=O)N4C5COCC4C5)C3)[nH]n2)c1 [Compound 231a, (1R,3S)-3-(3-(2-(3-hydroxy-2-((E)-(isopropylimino)methyl)-5-methoxyphenoxy)acetamido)-1H-pyrazol-5-yl)cyclopentyl 3-oxa-6-azabicyclo[3.1.1]heptane-6-carboxylate]	–	2.8	12.9
COc1cc(O)c(/C=N/C(C)C)c(OCC(=O)Nc2cc([C@H]3CC[C@@H](OC(=O)N4CC5CC(C4)O5)C3)[nH]n2)c1 [Compound 235a, (1R,3S)-3-(3-(2-(3-hydroxy-2-((E)-(isopropylimino)methyl)-5-methoxyphenoxy)acetamido)-1H-pyrazol-5-yl)cyclopentyl 6-oxa-3-azabicyclo[3.1.1]heptane-3-carboxylate]	–	3.2	15.2
COc1cc(O)c(/C=N/C(C)C)c2c1CC(C(=O)Nc1cc([C@H]3CC[C@@H](OC(=O)NC(C)(C)C)C3)[nH]n1)C2 (single isomer, unassigned) [Compound 283a, (1R,3S)-3-(3-((*)-5-hydroxy-4-((E)-(isopropylimino)methyl)-7-methoxy-2,3-dihydro-1H-indene-2-carboxamido)-1H-pyrazol-5-yl)cyclopentyl tert-butylcarbamate]	149 (≈ 78.3 µg/mL)	–	–
COc1cc(O)c(/C=N/C(C)C)c(OCC(=O)Nc2cc([C@H]3CC[C@@H](OC(=O)N(C)N(C)C)C3)[nH]n2)c1 [Compound 172a, (1R,3S)-3-(3-(2-(3-hydroxy-2-((E)-(isopropylimino)methyl)-5-methoxyphenoxy)acetamido)-1H-pyrazol-5-yl)cyclopentyl 1,2,2-trimethylhydrazine-1-carboxylate]	227 (≈ 117 µg/mL)	–	–

Source: US20250289789A1, “REVERSIBLE LYSINE COVALENT MODIFIERS OF CDK2 AND USES THEREOF” (Terremoto Biosciences, Inc., priority 2023, published 2025)
